Read-outs that look alike come from different tables or passages of the source.
Columns and labels:
PDC No. 7 = experiment: Cell-survival SRB assay; format: cell-based; conditions: Homo sapiens, 48 h, read-out: IC50 values of olparib
Method: (§1) The TNBC cells were treated with the indicated concentration of agents (10, 3, 1, 0.3, 0.1, 0.03, or 0.01 μmol/L for olaparib) for 48 h. Then, cells were analyzed by the Sulforhodamine B (SRB) assay, following the methods provided by and Li et al.[23] and Guan et al.[24]. The relative survival cells were determined by the O.D. values (optical density values) at 510 nm. […] The IC50 values of agents were calculated from the inhibition rates[23],[24]. The colony formation experiments were performed following the method desicripted by Fang et al.[5]. TNBC cells were transfected with the plasmids and treated with solvent control or the olaparib. The cells were analyzed by the colony-formation.

HCC-1937 = experiment: Cell-survival SRB assay; format: cell-based; conditions: Homo sapiens, HCC1937, 48 h, read-out: The IC50 values of olaparib
Method: as §1

PDC No. 2 = experiment: Cell-survival SRB assay; format: cell-based; conditions: Homo sapiens, 48 h, read-out: IC50 values of olparib
Method: as §1

PDC No. 6 = experiment: Cell-survival SRB assay; format: cell-based; conditions: Homo sapiens, 48 h, read-out: IC50 values of olparib
Method: as §1

PDC No. 9 = experiment: Cell-survival SRB assay; format: cell-based; conditions: Homo sapiens, 48 h, read-out: IC50 values of olparib
Method: as §1

MDA-MB-436 = experiment: Cell-survival SRB assay; format: cell-based; conditions: Homo sapiens, MDA-MB-436, 48 h, read-out: The IC50 values of olaparib
Method: as §1

PDC No. 3 = experiment: Cell-survival SRB assay; format: cell-based; conditions: Homo sapiens, 48 h, read-out: IC50 values of olparib
Method: as §1

[1] = Olaparib sustained in subcutaneous TNBC tumors after intratumoral injection, LC-MS/MS (half-life); format: in vivo, nude mice; conditions: nude, mouse, subcutaneous tumor tissue, other: injected into the subcutaneous tumors (intratumoral), read-out: Half life values of olaparib (t1/2) In subcutaneous tumors (converted)
Method: (§2) TNBC cells transfected with plasmids were used for the pharmacokinetic experiments to examine the amount of olaparib sustained in the cells. For the cell-based experiments, cells were treated with 1 μmol/L concentration of olaparib for 12 h[33]. Then, cells were harvested at indicated time-points. For the animal experiments, TNBC cells were injected into the subcutaneous position to form subcutaneous tumor tissues. After 2–3 weeks’ growth, when the tumor volumes reached 1500–2000 mm^3, the solution of olaparib was injected into the subcutaneous tumors. Then, the tumor tissues were harvested at indicated times[34],[35]. The olaparib in cells or tumor tissues was extracted by acetonitrile (ACN), and the amount of olaparib sustained in cells or tumor tissues at each time point was determined by liquid chromatography–mass spectrometry/mass spectrometry (LC-MS/MS), following the methods established by Krens et al.[36]. The sustaining rates of olaparib were calculated as (the amount of olaparib at each time)/(the amount of olaparib at 0-time) × 100%. The sustaining curves or the half-time life (t1/2) of olaparib was obtained by the sustained rates of olaparib.

[2] = Olaparib sustained in cultured TNBC cells, LC-MS/MS (half-life); format: in vitro ADME, human; conditions: human
Method: as §2

TNBC PDC No. 3 = experiment: In vivo antitumor effect of olaparib on subcutaneous TNBC tumors; conditions: nude mice, oral administration once every two days, 4–5 weeks
Method: Female nude mice, 4–6 weeks old, were purchased from Beijing Si-Bei-Fu Corporation, China. The animal experiments were approved by the Institutional Animal Care and Use Committee of the Chinese PLA General Hospital, China. All animal experiments (n = 10 for each group; animals were randomly divided into the groups) were performed according to the UK Animals (Scientific Procedures) Act, 1986, and associated guidelines. TNBC cells transfected with plasmids were treated with olaparib via oral administration once every two days. After 4–5 weeks’ treatment, the tumor tissues of the mice were harvested. The tumor volumes or tumor weights were determined following the methods described by Jia et al.[37]. The inhibition rates of olaparib were calculated by the tumor volumes or tumor weights.

## O=C(c1cc(Cc2n[nH]c(=O)c3ccccc23)ccc1F)N1CCN(C(=O)C2CC2)CC1 [olaparib]
PDC No. 7; PDC No. 7, control
  IC50: 2.04 ± 0.77 µM
PDC No. 7; PDC No. 7, siFBI-1, 48 h
  IC50: 0.33 ± 0.1 µM
HCC-1937; HCC-1937, FBI-1 + miR-30c, 48 h
  IC50: 0.24 ± 0.04 µM
HCC-1937; HCC-1937, FBI-1, 48 h
  IC50: 3.7 ± 0.38 µM
HCC-1937; HCC-1937, control, 48 h
  IC50: 0.9 ± 0.33 µM
HCC-1937; HCC-1937, miR-30c + PXR^Mut, 48 h
  IC50: 4.9 ± 0.82 µM
HCC-1937; HCC-1937, miR-30c, 48 h
  IC50: 0.1 ± 0.05 µM
HCC-1937; HCC-1937, siFBI-1 + miR-30c inhibitor, 48 h
  IC50: 2.21 ± 0.51 µM
HCC-1937; HCC-1937, siFBI-1, 48 h
  IC50: 0.13 ± 0.08 µM
PDC No. 2; PDC No. 2, control
  IC50: 1.32 ± 0.25 µM
PDC No. 2; PDC No. 2, siFBI-1, 48 h
  IC50: 0.22 ± 0.02 µM
PDC No. 6; PDC No. 6, control
  IC50: 1.74 ± 0.82 µM
PDC No. 6; PDC No. 6, siFBI-1, 48 h
  IC50: 0.25 ± 0.04 µM
PDC No. 9; PDC No. 9, FBI-1, 48 h
  IC50: 9.88 ± 0.65 µM
PDC No. 9; PDC No. 9, control
  IC50: 0.85 ± 0.33 µM
PDC No. 9; PDC No. 9, ketoconazole + FBI-1, 48 h
  IC50: 1.64 ± 0.52 µM
MDA-MB-436; MDA-MB-436, FBI-1 + miR-30c, 48 h
  IC50: 0.21 ± 0.02 µM
MDA-MB-436; MDA-MB-436, FBI-1, 48 h
  IC50: 2.46 ± 0.79 µM
MDA-MB-436; MDA-MB-436, control, 48 h
  IC50: 0.79 ± 0.28 µM
MDA-MB-436; MDA-MB-436, miR-30c + PXR^Mut, 48 h
  IC50: 2.75 ± 0.4 µM
MDA-MB-436; MDA-MB-436, miR-30c, 48 h
  IC50: 0.1 ± 0.03 µM
MDA-MB-436; MDA-MB-436, siFBI-1 + miR-30c inhibitor, 48 h
  IC50: 1.82 ± 0.31 µM
MDA-MB-436; MDA-MB-436, siFBI-1, 48 h
  IC50: 0.14 ± 0.01 µM
PDC No. 3; PDC No. 3, FBI-1, 48 h
  IC50: 8.75 ± 1 µM
PDC No. 3; PDC No. 3, control
  IC50: 0.94 ± 0.1 µM
PDC No. 3; PDC No. 3, ketoconazole + FBI-1, 48 h
  IC50: 0.63 ± 0.11 µM
PDC No. 3; PDC No. 3, siFBI-1, 48 h
  IC50: 0.1 ± 0.05 µM
[1]; PDC No. 2, Control
  half-life: 30.1 ± 6.81 h
[1]; PDC No. 2, siFBI-1
  half-life: 53.7 ± 7.34 h
[1]; PDC No. 3, Control
  half-life: 32.2 ± 9.21 h
[1]; PDC No. 3, FBI-1
  half-life: 17.9 ± 8.65 h
[1]; PDC No. 3, siFBI-1
  half-life: 62.7 ± 6.77 h
[1]; PDC No. 6, Control
  half-life: 28.6 ± 9.84 h
[1]; PDC No. 6, siFBI-1
  half-life: 43.6 ± 7.72 h
[1]; PDC No. 7, Control
  half-life: 31.4 ± 9.95 h
[1]; PDC No. 7, siFBI-1
  half-life: 58.2 ± 9.06 h
[1]; PDC No. 9, Control
  half-life: 36.1 ± 8.33 h
[1]; PDC No. 9, FBI-1
  half-life: 22.6 ± 4.36 h
[2]; HCC-1937, FBI-1 + miR-30c, read-out: half life values of olaparib (t1/2) (converted)
  half-life at 1 μmol/L: 57.3 ± 8.91 h
[2]; HCC-1937 TNBC cells, HCC-1937, FBI-1, read-out: half life values of olaparib (t1/2) (converted)
  half-life at 1 μmol/L: 9.44 ± 0.57 h
[2]; HCC-1937 TNBC cells, HCC-1937, control, read-out: half life values of olaparib (t1/2) (converted)
  half-life at 1 μmol/L: 31.2 ± 4.67 h
[2]; HCC-1937 TNBC cells, HCC-1937, miR-30c + PXR^Mut, read-out: half life values of olaparib (t1/2) (converted)
  half-life at 1 μmol/L: 8.55 ± 0.3 h
[2]; HCC-1937 TNBC cells, HCC-1937, miR-30c, read-out: half life values of olaparib (t1/2) (converted)
  half-life at 1 μmol/L: 68.3 ± 13.4 h
[2]; HCC-1937 TNBC cells, HCC-1937, siFBI-1 + miR-30c inhibitor, read-out: half life values of olaparib (t1/2) (converted)
  half-life at 1 μmol/L: 18.6 ± 4.08 h
[2]; HCC-1937 TNBC cells, HCC-1937, siFBI-1, read-out: half life values of olaparib (t1/2) (converted)
  half-life at 1 μmol/L: 50.2 ± 5.62 h
[2]; MDA-MB-436, FBI-1 + miR-30c, read-out: half life values of olaparib (t1/2) (converted)
  half-life at 1 μmol/L: 44.1 ± 5.75 h
[2]; MDA-MB-436 TNBC cells, MDA-MB-436, FBI-1, read-out: half life values of olaparib (t1/2) (converted)
  half-life at 1 μmol/L: 13.4 ± 2.75 h
[2]; MDA-MB-436 TNBC cells, MDA-MB-436, control, read-out: half life values of olaparib (t1/2) (converted)
  half-life at 1 μmol/L: 28.9 ± 4.32 h
[2]; MDA-MB-436 TNBC cells, MDA-MB-436, miR-30c + PXR^Mut, read-out: half life values of olaparib (t1/2) (converted)
  half-life at 1 μmol/L: 11.2 ± 4.33 h
[2]; MDA-MB-436 TNBC cells, MDA-MB-436, miR-30c, read-out: half life values of olaparib (t1/2) (converted)
  half-life at 1 μmol/L: 51.3 ± 7.14 h
[2]; MDA-MB-436 TNBC cells, MDA-MB-436, siFBI-1 + miR-30c inhibitor, read-out: half life values of olaparib (t1/2) (converted)
  half-life at 1 μmol/L: 20.3 ± 5.48 h
[2]; MDA-MB-436 TNBC cells, MDA-MB-436, siFBI-1, read-out: half life values of olaparib (t1/2) (converted)
  half-life at 1 μmol/L: 47.3 ± 7.42 h
[2]; TNBC cells PDC No. 2, PDC No. 2, Control, read-out: Half life values of olaparib (t1/2) In cultured cells (converted)
  half-life at 1 μmol/L: 21.7 ± 6.89 h
[2]; TNBC cells PDC No. 2, PDC No. 2, siFBI-1, read-out: Half life values of olaparib (t1/2) In cultured cells (converted)
  half-life at 1 μmol/L: 60.8 ± 4.85 h
[2]; TNBC cells PDC No. 3, PDC No. 3, Control (Table 3), read-out: Half life values of olaparib (t1/2) In cultured cells (converted)
  half-life at 1 μmol/L: 25 ± 7.82 h
[2]; TNBC cells PDC No. 3, PDC No. 3, Control (Table 4), read-out: Half-life values of olparib (t1/2) (converted)
  half-life at 1 μmol/L: 27.4 ± 4.3 h
[2]; TNBC cells PDC No. 3, PDC No. 3, FBI-1 (Table 3), read-out: Half life values of olaparib (t1/2) In cultured cells (converted)
  half-life at 1 μmol/L: 11.7 ± 3.88 h
[2]; TNBC cells PDC No. 3, PDC No. 3, FBI-1 (Table 4), read-out: Half-life values of olparib (t1/2) (converted)
  half-life at 1 μmol/L: 10.6 ± 4.54 h
[2]; TNBC cells PDC No. 3, PDC No. 3, siFBI-1, read-out: Half life values of olaparib (t1/2) In cultured cells (converted)
  half-life at 1 μmol/L: 59.2 ± 8.91 h
[2]; TNBC cells PDC No. 3, with ketoconazole (concentration not stated), PDC No. 3, FBI-1 + ketoconazole, read-out: Half-life values of olparib (t1/2) (converted)
  half-life at 1 μmol/L: 26.2 ± 3.85 h
[2]; TNBC cells PDC No. 6, PDC No. 6, Control, read-out: Half life values of olaparib (t1/2) In cultured cells (converted)
  half-life at 1 μmol/L: 19.4 ± 5.83 h
[2]; TNBC cells PDC No. 6, PDC No. 6, siFBI-1, read-out: Half life values of olaparib (t1/2) In cultured cells (converted)
  half-life at 1 μmol/L: 51.4 ± 11.5 h
[2]; TNBC cells PDC No. 7, PDC No. 7, Control, read-out: Half life values of olaparib (t1/2) In cultured cells (converted)
  half-life at 1 μmol/L: 21 ± 5.01 h
[2]; TNBC cells PDC No. 7, PDC No. 7, siFBI-1, read-out: Half life values of olaparib (t1/2) In cultured cells (converted)
  half-life at 1 μmol/L: 55.5 ± 9.97 h
[2]; TNBC cells PDC No. 9, PDC No. 9, Control (Table 3), read-out: Half life values of olaparib (t1/2) In cultured cells (converted)
  half-life at 1 μmol/L: 33.8 ± 5.5 h
[2]; TNBC cells PDC No. 9, PDC No. 9, Control (Table 4), read-out: Half-life values of olparib (t1/2) (converted)
  half-life at 1 μmol/L: 36.3 ± 6.64 h
[2]; TNBC cells PDC No. 9, PDC No. 9, FBI-1 (Table 3), read-out: Half life values of olaparib (t1/2) In cultured cells (converted)
  half-life at 1 μmol/L: 18.1 ± 4.44 h
[2]; TNBC cells PDC No. 9, PDC No. 9, FBI-1 (Table 4), read-out: Half-life values of olparib (t1/2) (converted)
  half-life at 1 μmol/L: 14.9 ± 2.88 h
[2]; TNBC cells PDC No. 9, with ketoconazole (concentration not stated), PDC No. 9, FBI-1 + ketoconazole, read-out: Half-life values of olparib (t1/2) (converted)
  half-life at 1 μmol/L: 37.8 ± 5.55 h
TNBC PDC No. 3
  subcutaneous growth of TNBC cells: inhibited the subcutaneous growth of TNBC cells
